“Also recorded” adds a separate entry of the source.
Tests used:
Mir 130a = assay: Screening of active compounds: miR-130a expression by real time PCR in keratinocytes; assay type: cell-based, human; conditions: 48 hours
Experimental: (§1) Neonatal Human Primary Epidermal Keratinocytes (Hekn, Cascade, Invitrogen, Carlsbad, Calif., USA) were cultured in EpiLife medium added with HKGS growth supplements (Cascade). Cells were constantly kept subconfluent in order to avoid triggering of a differentiation process. Cells were passaged usually once a week, at each passage the harvested cells number and seeded cell number were recorded in order to calculate the population doublings occurring between passages and the population doubling time. At passage 2 300.000 keratinocytes were plated in 60 mm dishes. The day after the cells were treated with the compounds at the indicated concentration for 48 hours without changing of the media. Cells were collected by scraping in medium. Cells were centrifuged at 800 g for 5 min and RNA was extracted.
Total RNA from cells was isolated using mirVana mirRNA Isolation Kit (Ambion) by following the manufacturer's protocol for total RNA extraction. Total RNA was quantified using a NanoDrop Spectophotometer (Thermo Scientific, Delaware, USA) and RNA quality was controlled on an agarose gel. For microRNA detection, RNA was reverse transcribed using TaqMan MicroRNA Reverse Transcription kit and qRT-PCR was performed with TaqMan universal master mix (Applied Biosystem) and specific primers for miR-130a, -138, -181a and -191. U18 was used as an internal control (Applied Biosystem). The expression of each gene and miR was defined from the threshold cycle (Ct), and relative expression levels were calculated by using the 2-ΔΔCt method after normalization with reference to the expression of the housekeeping gene U18.
The following compounds were tested according to the process of the invention, and the following results were obtained: […]

Mir 191 = assay: Screening of active compounds: miR-191 expression by real time PCR in keratinocytes; assay type: cell-based, human; conditions: 48 hours, compound at 6. 10-5%
Experimental: as §1
Total RNA from cells was isolated using mirVana mirRNA Isolation Kit (Ambion) by following the manufacturer's protocol for total RNA extraction. Total RNA was quantified using a NanoDrop Spectophotometer (Thermo Scientific, Delaware, USA) and RNA quality was controlled on an agarose gel. […] The expression of each gene and miR was defined from the threshold cycle (Ct), and relative expression levels were calculated by using the 2-ΔΔCt method after normalization with reference to the expression of the housekeeping gene U18. […]

Mir 181a = assay: Screening of active compounds: miR-181a expression by real time PCR in keratinocytes; assay type: cell-based, human; conditions: 48 hours
Experimental: as §1, with “extracted. Total RNA from cells was isolated using […] Isolation Kit (Ambion) by following the manufacturer's protocol for total RNA extraction. Total RNA was quantified using a NanoDrop Spectophotometer (Thermo Scientific, Delaware, USA) and RNA quality was controlled on an agarose gel. […] The expression of each gene and miR was defined from the threshold cycle (Ct), and relative expression levels were calculated by using the 2-ΔΔCt method after normalization with reference to the expression of the housekeeping gene U18. […]” for “extracted.”

SirT1 protein = assay: Western blot of SirT1 in transfected human keratinocytes; assay type: cell-based; conditions: versus scrambled sequence (Ctrl)
Experimental: Human primary keratinocytes were cultured in EpiLife medium with HKGS growth supplements (Cascade) and treated with CaCl2 1.2 mM in order to induce the differentiation process. Differentiated cells were harvested after 7 days of treatment for microRNA levels analysis. Human primary keratinocytes were transfected with human pre-miR-138, anti-miR-138 and Cy3-labeled negative control (Ambion, Texas, USA) using the SiPORT neoFX transfection agent (Ambion) according to manufacturer protocols. 16 hrs after transfection, the medium was removed and replaced with fresh medium.
(§2) Total cell extracts were resolved on a SDS polyacrylamide gel, blotted on a Hybond P PVDF membrane (G&E Healthcare, UK). Membranes were blocked with PBST 5% non fat dry milk, incubated with primary antibodies for 2 h at room temperature, washed and hybridized for 1 h at room temperature using the appropriate horseradish peroxidase-conjugated secondary antibody (rabbit and mouse, BioRad, Hercules, Calif., USA). Detection was performed with the ECL chemiluminescence kit (Perkin Elmer, Waltham, Mass., USA).
anti-Sirt-1 (Abcam, Cambridge, United Kingdom; 1/500 dilution), anti-β actin (Sigma, St Louis, Minn., USA; 1/5000 dilution), were used.
The human primary keratinocytes described in Example 1 are used in this example. […]

[1] = system: proliferating keratinocytes; assay: Proliferation by BrdU incorporation (Click-iT EdU flow cytometry) after miR over-expression; assay type: cell-based; conditions: over-expression in proliferating human primary keratinocytes
Experimental: (§3) The human primary keratinocytes described in Example 1 are used in this example. Human primary keratinocytes were cultured in EpiLife medium with HKGS growth supplements (Cascade). […] 16 hrs after transfection, the medium was removed and replaced with fresh medium.
Methods used to evaluate cell proliferation are generally based on incorporation of bromodeoxyuridine (BrdU) during DNA synthesis. The Click-iT™ EdU flow cytometry assay kit is a novel alternative to BrdU assay (Molecular Probes, Eugene, Oreg., USA). […] Briefly, cells were incubated with EdU for 4 hrs. After incubation, samples were fixed, permeabilized and stained according to the manufacturer's protocol. Cell cycle was analysed using a FACSCalibur flow cytometer (BD Biosciences, San Jose, Calif., USA). Fifteen thousand events were evaluated using the Cell Quest (BD) and Modfit LT (Verity Software; BD) programs.

[2] = system: proliferating keratinocytes; assay: Senescence-associated β-galactosidase staining after miR over-expression; assay type: cell-based; conditions: over-expression in proliferating human primary keratinocytes
Experimental: as §3
Cells were plated in 6-well culture plates, washed with PBS, and fixed with 2% formaldehyde/0.2% glutaraldehyde in PBS for 5 minutes. After another washing step with PBS, cells were incubated with β-galactosidase staining solution (150 mmol/L NaCl, 2 mmol/L MgCl2, 5 mmol/L potassium ferricyanide, 5 mmol/L potassium ferrocyanide, 40 mmol/L citric acid, 12 mmol/L sodium phosphate, pH 6.0, containing 1 mg/mL 5-bromo-4-chloro-3-indolyl-β-Dgalactoside [X-gal]) for 24 hours at 37° C. The reaction was stopped by replacing the staining solution with 70% glycerol.

[3] = system: Sirt-1 3′UTR miR-181a del; assay: Luciferase reporter assay, Sirt-1 3′UTR miR-181a del, HEK 293E cells; assay type: cell-based, human; conditions: Sit 3′UTR miR-181a del reporter, 24 hours after transfection
Experimental: On the other hand, from this wild type sequence, the miR-181a predicted target site (7 bp, UGAAUGU) was deleted by PCR using the following overlapping primers:
Therefore, the SirT1 3′UTR miR-181a del is obtained.
(§4) 2×10^5 HEK 293E cells were seeded in 12 well dishes 24 hours before transfection. Cells were transfected using Lipofectamine 2000 (Invitrogen) with 100 ng of pGL3 vectors (i.e. with Sirt-1 3′UTR wt or Sirt-1 3′UTR miR-181a del), 12 pmol of pre-miR-181a or pre-miR scramble sequence (Ambion), and 10 ng of Renilla luciferase pRL-CMV vector. Luciferase activities of cellular extracts were measured 24 hours after transfection, by using a Dual Luciferase Reporter Assay System (Promega); light emission was measured over 10 seconds using an OPTOCOMP I luminometer. Efficiency of transfection was normalised using Renilla luciferase activity.

Sirt-1 3′UTR wt = assay: Luciferase reporter assay, Sirt-1 3′UTR wt, HEK 293E cells; assay type: cell-based, human; conditions: Sirt-1 3′UTR wt reporter, 12 pmol pre-miR, 24 hours after transfection
Experimental: Human Sirt-1 3′UTR was amplified by PCR from the first nucleotide after stop codon to the last nucleotide before polyadenylation signal from human genomic DNA using the following primers:
The 1940 bp fragment (i.e. pSirT1 3′UTR wt), after SpeI restriction, was ligated to a compatible XbaI linearized pGL3 Control vector (Promega, Madison, Wis., USA).
as §4, with “miR-138” for “miR-181a”, “pre-miR-138” for “pre-miR-181a”
2×10^5 HEK 293E cells were seeded in 12 well dishes 24 hours before transfection. […] Luciferase activities of cellular extracts were measured 24 hours after transfection, by using a Dual Luciferase Reporter Assay System (Promega); light emission was measured over 10 seconds using an OPTOCOMP I luminometer. […]

CDK6 3′UTR wt = assay: Luciferase reporter assay, CDK6 3′UTR wt, HEK 293E cells; assay type: cell-based; conditions: CDK6 3′UTR wt reporter, 24 hours after transfection
Experimental: as §4, with “vectors” for “vectors (i.e. with Sirt-1 3′UTR wt or Sirt-1 3′UTR miR-181a del),”, “pre-miR-191” for “pre-miR-181a”

CDK6 protein = assay: Western blot of CDK6 in transfected human keratinocytes; assay type: cell-based; conditions: versus scrambled sequence (Ctrl)
Experimental: The human primary keratinocytes described in Example 1 are used in this example. Human primary keratinocytes were cultured in EpiLife medium with HKGS growth supplements (Cascade) and treated with CaCl2 1.2 mM in order to induce the differentiation process. Differentiated cells were harvested after 7 days of treatment for microRNA levels analysis. Human primary keratinocytes were transfected with human pre-miR-191, anti-miR-191 and Cy3-labeled negative control (Ambion, Texas, USA) using the SiPORT neoFX transfection agent (Ambion) according to manufacturer protocols. 16 hrs after transfection, the medium was removed and replaced with fresh medium.
as §2
Polyclonal anti-CDK-6 (Santa Cruz, sc-177, dilution 1:2000), anti-β actin (Sigma, St Louis, Minn., USA; 1/5000 dilution), were used.

Molecule: CCCCC[C@H](O)CC(=O)CCc1ccc(O)c(OC)c1 [Gingerol 6]
- inhibition of Mir 130a expression (Mir 130a; compound at 6. 10-5%): >20 (37%)
- inhibition of Mir 191 expression (Mir 191): >20 (24%)
- inhibition of Mir 181a expression (Mir 181a; compound at 6. 10-5%): >20 (29%)

Molecule: Oc1ccc(C=Cc2cc(O)cc(O)c2)cc1 [Resveratrol]
- inhibition of Mir 130a expression (Mir 130a; compound at 4. 10-4%): >20 (25%)
- inhibition of Mir 181a expression (Mir 181a; compound at 4. 10-4%): >20 (21%)

Molecule: COC(=O)C1Cc2cc(OC(C)=O)c(OC(C)=O)cc2N1C(C)=O (centres unmarked) [Tryacetyl-leukodopachrome methyl ester]
- inhibition of Mir 130a expression (Mir 130a; compound at 10-3%): 20 (10-3%)

Molecule: pre-miR-181a: human pre-miR-181a (Ambion) transfected to over-express miR-181a (SEQ ID No. 3) [reference compound]
- SirT1 protein level (Western blot) (SirT1 protein): markedly diminished
- proliferation as evaluated by BrdU incorporation ([1]; listed as miR181a): significantly diminished
- proliferation as evaluated by BrdU incorporation ([1]; listed as miR-181a): strong effect on inhibition of proliferation
- senescence as evaluated by SA-β-galactosidase staining ([2]; listed as miR-181a): sufficient per se to induce senescence; also recorded: significantly increase
- luciferase activity [3]: 0.93±0.09 fold over control
- luciferase activity (Sirt-1 3′UTR wt): 0.648±0.1 fold over control

B1: pre-miR-191: human pre-miR-191 (Ambion) transfected to over-express miR-191 (SEQ ID No. 4) (nucleic acid)
chain: CGGCUGGACAGCGGGCAACGGAAUCCCAAAAGCAGCUGUUGUCUCCAGAGCAUUCCAGCUGCGCUUGGAUUUCGUCCCCUGCUCUCCUGCCU
modifications: precursor form, further chemistry not given here
- proliferation as evaluated by BrdU incorporation ([1]; listed as miR191): significantly diminished
- proliferation as evaluated by BrdU incorporation ([1]; listed as miR-191): strong effect on inhibition of proliferation
- senescence as evaluated by SA-β-galactosidase staining ([2]; listed as miR-191): significantly increase; also recorded: sufficient per se to induce senescence
- luciferase activity (CDK6 3′UTR wt): 0.78±0.1 fold over control
- CDK6 protein level (Western blot) (CDK6 protein): markedly diminished
